Here are results for 9 molecules from PubChem BioAssay (NCI).

Test systems include HOP-92 NSCLC; HL-60(TB) leukemia; HCT-116 colon; OVCAR-3 ovarian; SNB-75 CNS; NCI-H522 lung; SK-MEL-5 melanoma; OVCAR-4 ovarian; MDA-MB-231 breast; HCT-15 colon.
Common to all, as to experiment: inhibition of tumour cell growth, NCI panel, 48 h

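Five compound concentrations were applied to cells in 96-well plates for 48 hours; endpoints were derived by simple linear interpolation of the resulting dose-response curve. GI50 = concentration required for 50% inhibition of growth. TGI is the concentration that stops growth completely.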

`COc1cccc(C2c3cc4c(cc3OC(N3CCCC3)C2C)OCO4)c1O` (stereo not given): the TGI with HOP-92 NSCLC amounted to 41.5 µM; in the assay on HL-60(TB) leukemia it was 31.5 µM; with HCT-116 colon, 35 µM; in the assay with OVCAR-3 ovarian it was 8.02 µM; in the assay with SNB-75 CNS, 8.29 µM; with NCI-H522 lung it was 20 µM. Further, the TGI is 16.3 µM in the assay with SK-MEL-5 melanoma, above 94.2 µM with OVCAR-4 ovarian, 45.8 µM in the assay on MDA-MB-231 breast and 38.4 µM with HCT-15 colon.

Regarding `COc1cc(Nc2nc3ccccc3cc2C(=O)Nc2ccc(F)c(F)c2)cc(OC)c1OC`, the GI50 is 1.98 µM in the assay on HOP-92 NSCLC; 2.43 µM in the assay with HL-60(TB) leukemia; 2.84 µM with HCT-116 colon; 2.56 µM with OVCAR-3 ovarian; 2.27 µM in the assay with SNB-75 CNS; 2.07 µM in the assay with NCI-H522 lung. The GI50 in the assay with SK-MEL-5 melanoma is 1.62 µM; with OVCAR-4 ovarian it was 2.8 µM; with MDA-MB-231 breast, 2.06 µM; in the assay on HCT-15 colon, 2.91 µM. Besides, the TGI in the assay on HOP-92 NSCLC worked out at 5.75 µM; in the assay on HL-60(TB) leukemia, 7.14 µM; with HCT-116 colon it was 9.08 µM; with OVCAR-3 ovarian, 6.96 µM; in the assay on SNB-75 CNS it was 9.35 µM; in the assay on NCI-H522 lung, 6.97 µM. Moreover, the TGI in the assay with SK-MEL-5 melanoma was 3.11 µM; in the assay on OVCAR-4 ovarian, 8.56 µM; with MDA-MB-231 breast it was 5.69 µM; in the assay on HCT-15 colon, above 100 µM.

On to `NC(=O)c1cccc(Nc2nccc(Nc3cccc4[nH]ncc34)n2)c1`, for which the GI50 with HOP-92 NSCLC is 3 µM; in the assay on HL-60(TB) leukemia it was 10.5 µM; with HCT-116 colon, 8.58 µM; in the assay on OVCAR-3 ovarian it was 8.31 µM; with SNB-75 CNS it was 4.58 µM; with NCI-H522 lung, 8.85 µM. Besides, the GI50 in the assay with SK-MEL-5 melanoma is 6.96 µM; in the assay on OVCAR-4 ovarian, 13.2 µM; with MDA-MB-231 breast it was 8.02 µM; in the assay with HCT-15 colon it was above 25 µM. For the same molecule, the TGI in the assay on HOP-92 NSCLC was 12.2 µM; in the assay on HL-60(TB) leukemia, above 25 µM; with HCT-116 colon, above 25 µM; in the assay with OVCAR-3 ovarian it was 24.6 µM; in the assay on SNB-75 CNS it was 15.6 µM; in the assay with NCI-H522 lung, above 25 µM. Moreover, the TGI with SK-MEL-5 melanoma, in the assay on OVCAR-4 ovarian, with MDA-MB-231 breast and with HCT-15 colon was above 25 µM in each case.

With `COC(=O)Cc1ccc(Oc2cnc3cc(F)c(F)cc3n2)cc1`, the GI50 in the assay on HOP-92 NSCLC is above 100 µM; in the assay on HL-60(TB) leukemia, 42.5 µM; with HCT-116 colon, 26 µM; in the assay with OVCAR-3 ovarian, 93.3 µM; in the assay with SNB-75 CNS, above 100 µM; with NCI-H522 lung it was above 100 µM. In addition, the GI50 with SK-MEL-5 melanoma was 32 µM; with OVCAR-4 ovarian, 58.3 µM; with MDA-MB-231 breast, above 100 µM; with HCT-15 colon, above 100 µM. In addition, the TGI in the assay on HOP-92 NSCLC, in the assay with HL-60(TB) leukemia, with HCT-116 colon, in the assay on OVCAR-3 ovarian, in the assay on SNB-75 CNS and in the assay on NCI-H522 lung was above 100 µM each time. The TGI with SK-MEL-5 melanoma, in the assay on OVCAR-4 ovarian, in the assay on MDA-MB-231 breast and with HCT-15 colon was above 100 µM each time.

`CNC(=O)Cc1nc(-c2cccc(NS(=O)(=O)c3c(F)cccc3F)c2F)c(-c2ccnc(Nc3ccccc3)n2)s1`: the GI50 is 0.355 µM in the assay on HOP-92 NSCLC; 3.96 µM in the assay on HL-60(TB) leukemia; 1.05 µM with HCT-116 colon; 12.9 µM in the assay with OVCAR-3 ovarian; 0.6 µM in the assay on SNB-75 CNS; 7.22 µM in the assay on NCI-H522 lung. Moreover, the GI50 in the assay on SK-MEL-5 melanoma was 0.0866 µM; in the assay on OVCAR-4 ovarian it was above 33.8 µM; in the assay on MDA-MB-231 breast, 1.04 µM; with HCT-15 colon it was 7.37 µM. Further, the TGI with HOP-92 NSCLC is above 14.4 µM; with HL-60(TB) leukemia, above 50 µM; in the assay on HCT-116 colon, above 29.2 µM; in the assay on OVCAR-3 ovarian it was above 50 µM; in the assay with SNB-75 CNS it was 49.8 µM; in the assay with NCI-H522 lung, above 50 µM. Moreover, the TGI in the assay on SK-MEL-5 melanoma was above 19.8 µM; with OVCAR-4 ovarian it was above 50 µM; in the assay on MDA-MB-231 breast, above 15.3 µM; with HCT-15 colon, above 50 µM.

`O=c1c(Cl)c(Cl)c(=O)c2sc3cc(Cl)ccc3[nH]c1=2`: the TGI is 33.4 µM in the assay with HOP-92 NSCLC; 23.7 µM with HL-60(TB) leukemia; above 100 µM in the assay with HCT-116 colon; 30.7 µM in the assay on OVCAR-3 ovarian; above 100 µM with SNB-75 CNS; 35.2 µM with NCI-H522 lung. Also, the TGI in the assay with SK-MEL-5 melanoma is above 100 µM; with OVCAR-4 ovarian, 22 µM; with MDA-MB-231 breast, 7.71 µM; with HCT-15 colon, above 100 µM.

In the case of `Cc1ccc(C)c(C2NC(=O)c3ccccc3N2)c1` (stereo not given), the TGI was above 100 µM in the assay with HOP-92 NSCLC; 0.56 µM in the assay with HL-60(TB) leukemia; 19.8 µM in the assay on HCT-116 colon; 0.997 µM in the assay on OVCAR-3 ovarian; 15.2 µM in the assay with SNB-75 CNS; 3.52 µM in the assay with NCI-H522 lung. In addition, the TGI with SK-MEL-5 melanoma was 21.3 µM; in the assay with OVCAR-4 ovarian, above 100 µM; in the assay on MDA-MB-231 breast it was 72.7 µM; with HCT-15 colon it was 50.6 µM.

Turning to `COc1cccc(/C=C/C(=O)c2ccc(Cl)cc2Cl)c1`, the GI50 in the assay with HOP-92 NSCLC was 0.0134 µM; in the assay on HL-60(TB) leukemia it was 8.9 µM; in the assay on HCT-116 colon, 4.94 µM; in the assay on OVCAR-3 ovarian it was 10.9 µM; in the assay with SNB-75 CNS it was 13.9 µM; in the assay with NCI-H522 lung, 18 µM. The GI50 was 9.38 µM in the assay with SK-MEL-5 melanoma, 10.9 µM in the assay with OVCAR-4 ovarian, 8.11 µM in the assay on MDA-MB-231 breast and 13.9 µM with HCT-15 colon. The TGI in the assay with HOP-92 NSCLC was 9.44 µM; with HL-60(TB) leukemia, above 50 µM; in the assay with HCT-116 colon it was 19.1 µM; in the assay on OVCAR-3 ovarian, 25.2 µM; in the assay with SNB-75 CNS, 36.7 µM; with NCI-H522 lung, above 50 µM. In addition, the TGI is 17.6 µM in the assay with SK-MEL-5 melanoma, 41 µM with OVCAR-4 ovarian, 15.9 µM in the assay with MDA-MB-231 breast and above 50 µM with HCT-15 colon.

Turning to `Cc1cc(C)c(NC(=S)NC(=O)c2ccccc2)cc1C`, the TGI in the assay on HOP-92 NSCLC, with HL-60(TB) leukemia, in the assay on HCT-116 colon, with OVCAR-3 ovarian, with SNB-75 CNS and with NCI-H522 lung was above 100 µM throughout. Further, the TGI in the assay with SK-MEL-5 melanoma, in the assay with OVCAR-4 ovarian, in the assay on MDA-MB-231 breast and in the assay on HCT-15 colon was above 100 µM each time.
